These results are taken from patent publication US10160769B2, “Compositions comprising thienopyrimidine and thienopyridine compounds and methods of use thereof” (The Regents of the University of Michigan, priority 2013, dated 2018).

For assay [1], the target named is T1, menin-MLL-AF9 interaction (Homo sapiens, UniProt O00255).
T1 construct: performed in HEK293 cells transfected with MLL-AF9; endogenous in cells; host or cells: HEK293
T1 sequence (O00255 1-610): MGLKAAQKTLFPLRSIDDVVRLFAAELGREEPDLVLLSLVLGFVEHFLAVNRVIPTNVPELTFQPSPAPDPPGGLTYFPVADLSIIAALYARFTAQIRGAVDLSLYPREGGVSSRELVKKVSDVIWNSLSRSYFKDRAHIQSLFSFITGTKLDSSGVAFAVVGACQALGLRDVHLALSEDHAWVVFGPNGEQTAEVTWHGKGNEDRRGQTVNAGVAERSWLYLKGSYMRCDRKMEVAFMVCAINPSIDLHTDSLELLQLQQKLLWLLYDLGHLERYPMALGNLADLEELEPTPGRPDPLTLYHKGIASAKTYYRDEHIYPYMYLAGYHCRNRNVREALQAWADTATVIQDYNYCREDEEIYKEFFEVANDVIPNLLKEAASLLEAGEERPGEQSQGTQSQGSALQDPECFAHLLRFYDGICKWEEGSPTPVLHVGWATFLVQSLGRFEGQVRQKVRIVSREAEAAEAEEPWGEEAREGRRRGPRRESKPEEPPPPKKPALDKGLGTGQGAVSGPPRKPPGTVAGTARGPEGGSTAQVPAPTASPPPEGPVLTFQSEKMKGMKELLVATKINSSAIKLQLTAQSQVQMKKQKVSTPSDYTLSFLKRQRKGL
Put plainly: Co-Immunoprecipitation (co-IP) in HEK293 cells transfected with MLL-AF9. Format: cell-based. Particulars: FIG. 2.

Assay [2] has as its system MLL-AF9 transformed mouse bone marrow cells (BMC). As to the kind of experiment: MTT cell viability assay in transformed BMC. Particulars: 72 h incubation, E2H-HLF transformed BMC as negative control, FIG. 3. Type of assay: cell-based. (Formazan colour is commonly taken as a measure of viable cells.)
The test system of assay [3] is MLL-AF9 BMC. Put plainly: Colony formation assay. Format: cell-based, mouse. Particulars: FIG. 7.
Assay [4] deals with Hoxa9 and Meis1 expression in MLL-AF9 BMC. Put plainly: qRT-PCR of Hoxa9 and Meis1. Format: cell-based, mouse. Particulars: FIG. 10.
In assay [5] the test system is human MLL leukemia cell lines. Put plainly: Growth / MTT cell viability in human MLL leukemia cell lines. Type of assay: cell-based.
In assay [6] the test system is mice model of MLL-AF9 leukemia. As to the kind of experiment: In vivo efficacy in mice model of MLL-AF9 leukemia. The following applies: once daily i.p. injections of 75 mg/kg, FIG. 18.
A further assay concerns MLL-AF9 transformed BMC. As to the kind of experiment: Growth curves experiments in transformed BMC. Type of assay: cell-based, mouse. Particulars: MLL-AF9 BMC vs Hoxa9/Meis1 transformed BMC (negative control), FIG. 5.
Assay [7] has as its system MLL-AF9 BMC. As to the kind of experiment: Differentiation (CD11b expression, cell morphology). Type of assay: cell-based, mouse. The following applies: change in CD11b expression and cell morphology, FIGS. 8, 9.
Assay [8] relates to non-MLL leukemia cell lines. As to the kind of experiment: Growth in non-MLL leukemia cell lines. Format: cell-based. The following applies: FIG. 13B.
In the next assay the target is T2, menin (Homo sapiens, UniProt O00255).
T2 sequence (O00255 1-610): T1 sequence (O00255 1-610)
As to the kind of experiment: Isothermal Titration calorimetry (ITC). Type of assay: binding. Particulars: FIG. 1.

The next assay deals with T3, menin-MLL interaction (Homo sapiens, UniProt O00255).
T3 sequence (O00255 1-610): T1 sequence (O00255 1-610)
As to the kind of experiment: biochemical.

The structures appear in SMILES notation.

From the text for menin-MLL interaction: Fluorescence Polarization Assay.
Compounds that inhibit the interaction decrease the fluorescence anisotropy which is being used as a read-out for compound screening and for IC50 determination.

Turning to `FC(F)(F)Cc1cc2c(NC3CCN(Cc4ccccc4)CC3)ncnc2s1` [Compound 108], the “inhibition of the menin-MLL-AF9 interaction” value (“inhibition” below) in [1] was “inhibition of the menin-MLL-AF9 interaction”. For the same molecule, the “proliferation of MLL leukemia cells” value in [2] was “selectively inhibit proliferation”. The morphology of colonies entry with MLL-AF9 BMC [3] was “changes morphology of colonies”. Besides, the colony number entry in the assay on MLL-AF9 BMC [3] (each round 7 days) is on record as “reduces colony number”. Further, the “expression of downstream targets of MLL fusion proteins: Hoxa9 and Meis1” value (“expression” below) in [4] was “downregulate expression”. The “growth of human MLL leukemia cell lines” value in assay [5] (MTT, 3 days of incubation, FIG. 11) is listed as “selectively inhibit growth”. Further, in assay [6], the “survival of leukemic mice” value was “Increase in survival”.

`N#Cc1cc2cc(CN3CCC(Nc4ncnc5sc(CC(F)(F)F)cc45)CC3)ccc2[nH]1` [Compound 175, 5-((4-((6-(2,2,2-trifluoroethyl)thieno[2,3-d]pyrimidin-4-yl)amino)piperidin-1-yl)methyl)-1H-indole-2-carbonitrile]: the “inhibition” value in assay [1] is “inhibition of the menin-MLL-AF9 interaction”. The “selectivity towards MLL fusion protein transformed cells” value with MLL-AF9 transformed BMC is listed as “great selectivity”. In addition, the differentiation entry in the assay on MLL-AF9 BMC [7] is “Differentiation induced”. Further, the “expression” value in assay [4] is on record as “downregulate expression”. The “growth of human MLL leukemia cell lines” value in assay [5] (FIG. 13A) is “selectively inhibits growth”. The “effect in non-MLL leukemia cell lines” value in assay [8] was “limited effect”.

`CC1(C)CN=C(N2CCN(c3ncnc4sc(CC(F)(F)F)cc34)CC2)S1` [Compound 1, 4-(4-(5,5-dimethyl-4,5-dihydrothiazol-2-yl)piperazin-1-yl)-6-(2,2,2-trifluoroethyl)thieno[2,3-d]pyrimidine]: the binding to menin result at menin is recorded as “direct binding”. The “inhibition” value in assay [1] is reported as “inhibition of the menin-MLL-AF9 interaction”. Besides, in assay [2], the “proliferation of MLL leukemia cells” value is “selectively inhibit proliferation”. Besides, the “expression” value in assay [4] is on record as “downregulate expression”.

As for `CC(F)(F)Cc1cc2c(NC3CCN(Cc4ccccc4)CC3)ncnc2s1` [Compound 155], at menin-MLL interaction, the IC50 (usually the midpoint of a concentration-inhibition curve) lay in the range of 500 to 2000 nM.

On menin-MLL interaction, `CC1(C)CN=C(N2C[C@@H]3C[C@H]2CN3c2ncnc3sc(CC(F)(F)F)cc23)S1` (racemic) [Compound 14] showed a half-maximal inhibitory concentration (IC50) of 100 to 510 nM.
